The values that follow come from ChEMBL document CHEMBL3044740, “Syntheses and evaluation of 2,5-disubstituted 4-thiazolidinone analogues as antimicrobial agents” (2012).

Activity calls are given as the source filed them. The calls are words filed in the database; no cut-off is given here.

Holding throughout (assay type): functional
In experiment [1] the test system is Candida albicans. Kind of experiment: Antifungal activity against Candida albicans MTCC 227 at 300 ug/ml by cup-plate method.
For experiment [2], the system named is Bacillus subtilis. Kind of experiment: Antibacterial activity against Bacillus subtilis MTCC 121 at 100 ug/ml by cup plate method. As to conditions: read-out: DIZ.
The test system of experiment [3] is Escherichia coli. Briefly: Antibacterial activity against Escherichia coli MTCC 739 at 100 ug/ml by cup-plate method. The following applies: read-out: DIZ.
The subject of experiment [4] is Pseudomonas aeruginosa. Briefly: Antibacterial activity against Pseudomonas aeruginosa MTCC 2453 at 200 ug/ml by cup-plate method. The following applies: read-out: DIZ.
For experiment [5], the system named is Escherichia coli. Briefly: Antibacterial activity against Escherichia coli MTCC 739 at 200 ug/ml by cup-plate method. The following applies: read-out: DIZ.
In experiment [6] the test system is Pseudomonas aeruginosa. Briefly: Antibacterial activity against Pseudomonas aeruginosa MTCC 2453 at 100 ug/ml by cup-plate method. The following applies: read-out: DIZ.
The test system of experiment [7] is Pseudomonas aeruginosa. Kind of experiment: Antibacterial activity against Pseudomonas aeruginosa MTCC 2453 at 50 ug/ml by cup-plate method. The following applies: read-out: DIZ.
The test system of experiment [8] is Bacillus subtilis. Briefly: Antibacterial activity against Bacillus subtilis MTCC 121 at 200 ug/ml by cup plate method. The following applies: read-out: DIZ.
The test system of experiment [9] is Escherichia coli. Briefly: Antibacterial activity against Escherichia coli MTCC 739 at 50 ug/ml by cup-plate method. The following applies: read-out: DIZ.
For experiment [10], the system named is Staphylococcus aureus. Kind of experiment: Antibacterial activity against Staphylococcus aureus MTCC 96 at 100 ug/ml by cup-plate method. The following applies: read-out: DIZ.
Experiment [11] deals with Staphylococcus aureus. Briefly: Antibacterial activity against Staphylococcus aureus MTCC 96 at 50 ug/ml by cup-plate method. The following applies: read-out: DIZ.
Experiment [12] has as its system Candida albicans. Briefly: Antifungal activity against Candida albicans MTCC 227 at 100 ug/ml by cup-plate method.
In experiment [13] the test system is Staphylococcus aureus. Kind of experiment: Antibacterial activity against Staphylococcus aureus MTCC 96 at 300 ug/ml by cup-plate method. The following applies: read-out: DIZ.
In experiment [14] the test system is Staphylococcus aureus. Briefly: Antibacterial activity against Staphylococcus aureus MTCC 96 at 200 ug/ml by cup-plate method. The following applies: read-out: DIZ.
Experiment [15] deals with Bacillus subtilis. Briefly: Antibacterial activity against Bacillus subtilis MTCC 121 at 300 ug/ml by cup plate method. The following applies: read-out: DIZ.
Experiment [16] relates to Pseudomonas aeruginosa. Briefly: Antibacterial activity against Pseudomonas aeruginosa MTCC 2453 at 300 ug/ml by cup-plate method. As to conditions: read-out: DIZ.
Experiment [17] has as its system Bacillus subtilis. Briefly: Antibacterial activity against Bacillus subtilis MTCC 121 at 50 ug/ml by cup plate method. As to conditions: read-out: DIZ.
Experiment [18] deals with Escherichia coli. Briefly: Antibacterial activity against Escherichia coli MTCC 739 at 300 ug/ml by cup-plate method. The following applies: read-out: DIZ.
Experiment [19] relates to Candida albicans. Briefly: Antifungal activity against Candida albicans MTCC 227 at 200 ug/ml by cup-plate method.
Experiment [20] concerns Candida albicans. Kind of experiment: Antifungal activity against Candida albicans MTCC 227 at 50 ug/ml by cup-plate method.

For `O=C1N/C(=N\c2ccc([N+](=O)[O-])cc2)S/C1=C\c1ccccc1[N+](=O)[O-]`, the “diameter of the inhibition zone (DIZ)” value in the experiment on Candida albicans [1], with Candida albicans [12], with Candida albicans [19] and in the experiment with Candida albicans [20] was “inactive” throughout. For the same compound, the zone of inhibition at 100 µg/mL in the experiment with Bacillus subtilis [2] is 12 mm; with Escherichia coli [3], 11 mm; in the experiment on Pseudomonas aeruginosa [6] it was 11 mm; in the experiment with Staphylococcus aureus [10], 15 mm. The zone of inhibition at 200 µg/mL in the experiment on Pseudomonas aeruginosa [4] was determined as 12 mm; in the experiment on Escherichia coli [5], 12 mm; in the experiment with Bacillus subtilis [8], 13 mm; with Staphylococcus aureus [14] it was 16 mm. In addition, the zone of inhibition at 50 µg/mL in the experiment on Pseudomonas aeruginosa [7] was found to be 10 mm; in the experiment with Escherichia coli [9], 11 mm; in the experiment on Staphylococcus aureus [11], 11 mm; in the experiment on Bacillus subtilis [17], 11 mm. In addition, the zone of inhibition at 300 µg/mL came out at 17 mm in the experiment with Staphylococcus aureus [13], 15 mm with Bacillus subtilis [15], 12 mm in the experiment on Pseudomonas aeruginosa [16] and 12 mm with Escherichia coli [18].
